Data on seven compounds can be found in patent US20250057772A1, “ORAL DOSAGE FORM WITH IONICALLY CHARGEABLE HYDROGEL FOR DELIVERY OF ACTIVE AGENT” (Entrega Inc., priority 2022, published 2025).

Data set [1] can be described thus: Evans Blue exclusion procedure. The data set is classed as physicochemical. As to conditions: 0.125 mg/mL Evans Blue in FASSIF buffer pH 7, hydrogel #12.035 for 40, 60, 80, 90% fluid uptake; p<0.001 vs no hydrogel. From the text: Commercially obtained Evan's blue dye was used as a surrogate marker for an anionic drug in hydrogel testing. It has a molecular weight of 961.8 g/mole and has four negative charges at pH 7 due to four sulfonate groups in the structure. Its visible light absorbance at 605 nm provides an easy way to monitor the concentration of the dye when exposed to the hydrogel in solution.
FASSIF buffer was created by adding 41.65 g of FASSIF buffer concentrate (Biorelevant Media, code FaSSIF) to 961.1 g DI water and stirred until completely mixed. Evans Blue solution was created by adding Evans Blue to approximately half of the FASSIF solution such that the final concentration of the media is 0.125 mg/mL Evans Blue.
5 mL of Evans Blue solution was added to a 15 mL centrifuge tube (EB Tube). 5 mL of FASSIF buffer (without Evans Blue) was added to another 15 mL tube (Background Tube). 200 mg of sub-63 um hydrogel #12.035 was added to both tubes. Vortexed tubes until fully mixed and placed both tubes on rocker plate for 15 minutes. After 15 minutes, both tubes were centrifuged at 3000 g for 1 minute. (N=3) 20 μL samples were extracted from the supernatant of both tubes and diluted into 180 μL of DI water in 96-well UV-clear plate. […] The plate was read for absorbance at 605 nm.
The absorbance reading samples from each group were averaged. […]

A short description of data set [2]: Exclusion or binding of ionic agents by Hydrogel #3.02, exterior fluid concentration by UV absorbance. The class given is physicochemical. The procedure:
Sodium caprate (sodium decanoate) is a known intestinal permeation enhancer with a negative charge (negative charge on the caprate). Sodium caprate (280 mg) was dissolved in 5 mL of modified pH 7 FASSIF buffer.
The intestinal permeation enhancer, sodium caprate (280 mg) was added.
Octreotide (as octreotide acetate) is an FDA approved therapeutic peptide with a molecular weight of 1019 g/mole and a net positive charge at pH below 8 (isoelectric point of octreotide=8.5). Octreotide (5 mg) was dissolved in 5 mL of modified FASSIF buffer at pH 7 (resulting in a starting concentration of 1 mg/mL).
Lanreotide is an FDA approved therapeutic peptide with a molecular weight of 1096 g/mole and a net positive charge at pH below 8. Lanreotide (5 mg) was dissolved in 5 mL of modified FASSIF buffer at pH 7.
Lanreotide is an FDA approved therapeutic peptide with a molecular weight of 1096 g/mole and a net positive charge at pH below 8. Lanreotide (5 mg) was dissolved in 5 mL of deionized water.

The conditions of data set [3]: published values; cited from earlier work.

For the compound `Cc1cc(-c2ccc(/N=N/c3ccc4c(S(=O)(=O)O)cc(S(=O)(=O)O)c(N)c4c3O)c(C)c2)ccc1/N=N/c1ccc2c(S(=O)(=O)O)cc(S(=O)(=O)O)c(N)c2c1O` [Evans Blue], the “relative concentration of the dye as hydrogel is added” value in data set [1] is “increasing concentration”.

`CC(C)[C@@H]1NC(=O)[C@H](CCCCN)NC(=O)[C@@H](Cc2c[nH]c3ccccc23)NC(=O)[C@H](Cc2ccc(O)cc2)NC(=O)[C@@H](NC(=O)[C@H](N)Cc2ccc3ccccc3c2)CSSC[C@@H](C(=O)N[C@H](C(N)=O)[C@@H](C)O)NC1=O` [Lanreotide]: the “concentration in the exterior fluid” value was “less than 0.05 mg/mL” in data set [2] (5 mg in 5 mL deionized water, Hydrogel #3.02 300 mg, after 25 minutes) and roughly 300 µg/mL in data set [2] (5 mg in 5 mL modified FASSIF pH 7, Hydrogel #3.02 300 mg, after 25 minutes).

On to `C[C@@H](O)[C@@H]1NC(=O)[C@H](CCCCN)NC(=O)[C@@H](Cc2c[nH]c3ccccc23)NC(=O)[C@H](Cc2ccccc2)NC(=O)[C@@H](NC(=O)[C@H](N)Cc2ccccc2)CSSC[C@@H](C(=O)N[C@H](CO)[C@@H](C)O)NC1=O` [Octreotide], for which the “concentration in the exterior fluid” value in data set [2] (5 mg in 5 mL modified FASSIF pH 7 (start 1 mg/mL), Hydrogel #3.02 300 mg, after 10 minutes) is recorded as “less than 0.8 mg/mL”.

As for `CCCCCCCCCC(=O)[O-].[Na+]` [Sodium caprate, sodium decanoate], the “concentration of caprate in the exterior fluid relative to initial concentration” value in data set [2] (280 mg in 5 mL modified pH 7 FASSIF, Hydrogel #3.02 300 mg) is on record as ~1.4 times the initial concentration.

As usually defined, the pKa is the pH at which an ionisable group is half protonated. For `CCS(=O)(=O)O` [ethanesulfonic acid], the pKa in data set [3] is given as −1.68.

On to `COS(=O)(=O)O` [methanesulfate], for which the pKa in data set [3] is reported as −3.4.

With `CCCN` [propylamine], the pKa in data set [3] is reported as roughly 10.7.
